Measurements reported in ChEMBL document CHEMBL1123329, “Aromatase inhibitors. Synthesis and evaluation of mammary tumor inhibiting activity of 3-alkylated 3-(4-aminophenyl)piperidine-2,6-diones” (J Med Chem, 1986).
Values joined by “and” are separate entries in the source; they are usually repeats but may differ in a detail not shown here. Equal entries are not always repeated.

Key:
[1] = species on record: Rattus norvegicus; assay type: functional; details: dose 20 mg/kg
[2] = species on record: Rattus norvegicus; assay type: functional; details: dose 20 mg/kg; remark: listed apart in the source

## C[C@]12CC[C@H]3[C@@H](CCC4=CC(=O)CC[C@@]43C)[C@@H]1CC[C@@H]2O [TESTOSTERONE]
[1]
  Change of tumor area: -37% and -24% and -29%
[2]
  Uterine weight effect: 23.3 and 29.3 and 34.7
